Converted amounts (≈) assume the structure as drawn.
Experiments:
[1] = system: DU145 human prostate tumor cells; assay: MTT cell proliferation assay in DU145 cells; assay type: cell-based; conditions: DU-145, read-out: 50% of inhibitory concentration, IC50 DU145
Description: MTT [3-(4,5-dimethylthiazol-2-yl)-2,5-diphenyltetrazolium bromide] incorporation based cell proliferation assay was performed using standard procedure with some modifications (38). The cytotoxic efficacy of the test compounds were evaluated in human malignant melanoma A2058 cells by MTT cell proliferation assay kit (Roche Applied Sciences, Germany). The assay was carried out according to the instruction provided by the vendor. Briefly, equal numbers of cells was plated in 96-well flat-bottomed plates in 100 μl of medium and were exposed to either DTIC or its derivative compounds at various concentrations up to 150 μg/ml for a period of three days. Vehicle control culture wells received only a maximum of 0.5% DMSO. Thereafter, 0.5 mg/ml of MTT reagent was added to each well and the microplate was incubated further for 4 h at 37° C. in presence of 5% CO2. Finally, the cells were solubilized by adding solubilizing solution and allowed to incubate at 37° C. overnight. After complete solubilization of the formazan crystals the absorbance was read at 540 nm in a microplate reader (BioRad, USA). The results (mean OD±SD) obtained from quadruplicate wells were used in calculation to determine the inhibition of cell proliferation (50% inhibitory concentration, IC50) of the test compounds.
Anti-tumor growth potential of Compound 1 and Compound 6 were evaluated in MCF-7 human breast tumor cells, MIA-PaCa2 human pancreas tumor cells and DU145 human prostate tumor cells by using MTT based cell proliferation studies as described earlier (example 19). The results (mean OD±SD) obtained from quadruplicate wells were used in calculation to determine the inhibition of cell proliferation (50% of inhibitory concentration, IC50) of the test compounds (Table 4).

B16F0 cells = assay: B16 F0 mouse melanoma cell colony formation assay; assay type: cell-based; conditions: B16F0, 192 h, 8 days, read-out: B16 colony growth inhibition; for inhibition at 100 µg/mL: 100 μg/ml
Description: Clone formation efficiency of the Compound 6 and DTIC was tested by following the procedure described earlier with some modifications (41). Briefly, B16F0 cells were harvested and seeded into 6-well plates (100 cells/ml). The cells were allowed to grow for 2 days and thereafter, the cells were incubated with DMEM containing either 0.1% DMSO or 100 μg/ml DTIC or 50 μg/ml and 100 μg/ml of Compound 6 for further 8 days. Fresh medium containing test agents was replaced at every 24 h. Finally, the wells were washed three times with PBS and fixed in methanol for 15 min. The cells were stained with Giemsa stain and observed under microscope. The image of the stained wells were captured digitally (Kodak Image Station 4000MM, Carestream Health Inc., New Haven, Conn.) and number of colonies were counted and analyzed by using NIH Image J software.

[2] = system: Vascular Endothelial Growth Factor (VEGF); assay: VEGF expression in B16F0 cells by western blot; assay type: cell-based, mouse; conditions: 50 μg/ml, 24 h
Description: B16F0 cells were cultivated in Dulbecco's modified Eagle's red medium (DMEM) (Sigma Life Science, USA) containing 10% fetal bovine serum (FBS) and 4.5 g/l D-glucose. Equal number cells (5×10^4) were seeded in culture dishes (35×10 mm, 11.7 cm^2). The cells were treated with either 50 μg/ml of DTIC or […] for 24 h. The cells incubated with only 0.1% DMSO was considered as vehicle control. After 24 h, the cell lysates were prepared and analyzed for Vascular Endothelial Growth Factor (VEGF) expression by western blot assay as described earlier with appropriate modifications (43).
For Western blot analyses, equal amount of B16F0 cell lysate proteins were separated in 12.5% SDS-PAGE under reducing conditions, and transferred onto nitrocellulose membranes (Bio-Rad, USA). The membranes were blocked with SuperBlock (Thermo scientific, USA) and subsequently reacted with VEGF antibody (Abeam, UK) at 4° C. overnight. Bound antibodies were probed with horseradish peroxidase conjugated secondary antibody and the specific immunoreactions were developed with enhanced chemiluminescence (Thermo scientific, USA). […] The images of immunoreactive bands were captured in Kodak Image Station 4000MM (Carestream Health Inc., New Haven, Conn.) and analyzed densitometrically by Kodak molecular Imaging software, Version 4.5.

[3] = system: B16 F0 mouse melanoma cells; assay: Cell cycle analysis by flow cytometry; assay type: cell-based; conditions: 24 h, propidium iodide FACS
Description: B16 F0 Cells were treated with the indicated concentrations of either vehicle (0.1% DMSO) or DTIC or Compound 6 for 24 h at different concentrations as indicated. The propidium iodide stained cells were analyzed for the distribution of cell cycle by FACS calibur, and the percentage of distribution at different phases of cell cycle was determined using ModFIT software. Data are shown as one representative of at least three independent experiments.
Cell cycle analysis of Compound 6 and DTIC treated B16F0 cells were analyzed by flow cytometry as described earlier with some modifications (42). Briefly, B16F0 cells were cultivated in DMEM containing 10% fetal bovine serum (FBS) in presence of 4.5 g/l D-glucose. The sub confluent cells were treated with either DTIC or Compound 6 and incubated for 24 h. Cells were harvested and prepared single cell suspension in buffer (PBS+2% FBS). The cells were washed twice with cold PBS and then fixed with cold 70% ethanol for 30 min. Ethanol was removed by centrifugation and the cells were suspended and the cell count was adjusted to 10^6 cells per ml. The cells were washed two times with PBS and then the cells were stained with propidium iodide for 30 min at 37° C. in presence of RNase. Finally, the cells were analyzed on FACS Calibur flow cytometry (BD Biosciences, USA). […]

[4] = system: Human umbilical vein endothelial cells (HUVEC); assay: Endothelial cell migration assay; assay type: cell-based; conditions: 18 h
Description: The methodology of endothelial cell migration assay was essentially the same as described earlier with some modifications (43). FALCON™ Cell Culture inserts (Becton Dickinson, USA) with 8 μm-pores in their PET membrane was coated with 0.1 mg/ml of collagen. Human umbilical vein endothelial cells (HUVEC) were added to the cell culture inserts (Becton Dickinson) at a density of 5×10^4 cells/insert. Cells were allowed to migrate through the insert for 18 h in presence of different concentrations of either DTIC or Compound 6. The control culture containing migration assembly received only 0.1% DMSO. […] The membranes of the inserts were then mounted on glass slides. Cells migrated through the membrane pores were counted in 20 random fields under Nikon Eclipse TS 100 microscope at 20× objective.

[5] = at therapeutic concentrations; cited from earlier work
[6] = cited from earlier work
[7] = system: metastatic malignant melanoma; conditions: clinical setting; cited from earlier work
[8] = patient with renal and hepatic dysfunctions

`CN(C)/N=N/c1ccsc1C(=O)O` [Compound 6, 3-[(dimethylamino)diazenyl]thiophene-2-carboxylic acid] showed an IC50 [1] of 62.6 µg/mL (≈ 314 µM), a melting point of 108 to 110 °C and an inhibition at 50 µg/mL (B16F0 cells; 50 μg/ml) of 55.2%. For the same molecule, the inhibition at 100 µg/mL (B16F0 cells) was 68.7%, the VEGF protein expression [2] was “down regulation of VEGF protein” and the “effect on cell cycle distribution” value [3] was “induction of cell cycle arrest in G2/M phase”. The endothelial cell migration [4] was “significant inhibition of migration”.
In the case of `CN(C)/N=N/c1[nH]cnc1C(N)=O` [DTIC, 5-(3,3-dimethyl-1-trizeno)-imidazole-4-carboxamide, reference compound], the IC50 [1] is given as 87.2 µg/mL (≈ 479 µM), the inhibition at 100 µg/mL (B16F0 cells) is given as 37.6% and the “binding to human plasma protein” value [5] is given as “not appreciably bound”. The “average cumulative excretion of unchanged DTIC in the urine” value ([6]; in six hours) was 40 % of the injected dose, the initial half life [6, 8] was 55 min and the terminal half life [6, 8] was 432 min. For the same molecule, the “initial half life of disappearance from the plasma” value ([6]; plasma, biphasic) was 19 min, the “terminal half life of disappearance from the plasma” value ([6]; plasma, biphasic) was “five” and the “Complete Response (CR) rate” value [7] was “below 10%”.

Reference: patent US8258119B2, “Anti-cancer drugs and uses relating thereto for metastatic malignant melanoma and other cancers” (Kasina Laila Innova Pharmaceuticals, priority 2008, dated 2012)
